Test results: ChEMBL document CHEMBL1201862, “PubChem BioAssay data set” (2004)
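Results reflect a 48-hour exposure of cells in 96-well plates to compound at five concentrations. Here, GI50 denotes the concentration required for 50% inhibition of growth.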 Calls of active or inactive are those of the source. Rule as the data show it: active = GI50 up to about 1.1 µM and inactive = higher.

Experiments:
Assay in all cases: NCI tumour cell line growth inhibition, 48 h
SN12C = system: SN12C
SK-OV-3 = system: SK-OV-3
NCI-H522 = system: NCI-H522
M14 = system: M14
HOP-92 = system: HOP-92
HOP-62 = system: HOP-62
786-0 = system: 786-0
Malme-3M = system: Malme-3M
LOX IMVI = system: LOX IMVI
CCRF-CEM = system: CCRF-CEM
HL-60 = system: HL-60
KM12 = system: KM12
A549 = system: A549
T47D = system: T47D
NCI-H226 = system: NCI-H226
A498 = system: A498
HCT-116 = system: HCT-116
NCI-H23 = system: NCI-H23
SF-268 = system: SF-268

Compound | GI50 (SN12C) | GI50 (SK-OV-3) | GI50 (NCI-H522) | GI50 (M14) | GI50 (HOP-92) | GI50 (HOP-62) | GI50 (786-0) | GI50 (Malme-3M) | GI50 (LOX IMVI) | GI50 (CCRF-CEM) | GI50 (HL-60) | GI50 (KM12) | GI50 (A549) | GI50 (T47D) | GI50 (NCI-H226) | GI50 (A498) | GI50 (HCT-116) | GI50 (NCI-H23) | GI50 (SF-268)
CC(C)NCC(O)c1cc(OCc2ccccc2)c(OCc2ccccc2)cc1NC(=O)CCC(=O)O (stereo unspecified) | 11.7 µM (inactive) | 14.9 µM (inactive) | 3.52 µM (inactive) | 1.45 µM (inactive) | 4.78 µM (inactive) | 13.7 µM (inactive) | 7.52 µM (inactive) | 15.2 µM (inactive) | 1.57 µM (inactive) | 2.58 µM (inactive) | 3.15 µM (inactive) | 4.28 µM (inactive) | 11.8 µM (inactive) | 10 µM (inactive) | 15.7 µM (inactive) | 11 µM (inactive) | 5.22 µM (inactive) | 13.2 µM (inactive) | 10.1 µM (inactive)
CC(=O)c1cc2c(s1)C(=O)c1scc(C(C)=O)c1C2=O | 0.273 µM (active) | 1.96 µM (inactive) | 0.378 µM (active) | 0.736 µM (active) | 0.318 µM (active) | 0.467 µM (active) | 0.724 µM (active) | 0.385 µM (active) | 0.0711 µM (active) | 0.235 µM (active) |  | 1.39 µM (inactive) | 1.41 µM (inactive) | 0.254 µM (active) | 1.69 µM (inactive) | 2.34 µM (inactive) | 0.293 µM (active) | 0.432 µM (active) | 0.319 µM (active)
O=C1N2CCc3c([nH]c4ccccc34)C23CC2CCCC12S3 (stereo unspecified) | 20.6 µM (inactive) | > 50 µM (inactive) | > 50 µM (inactive) | > 50 µM (inactive) | 29 µM (inactive) | > 50 µM (inactive) | 33.7 µM (inactive) | 27.6 µM (inactive) | 34.2 µM (inactive) |  | > 50 µM (inactive) | 25.4 µM (inactive) | 17.7 µM (inactive) | 20.5 µM (inactive) | > 50 µM (inactive) | 33 µM (inactive) | 20.6 µM (inactive) | 20.1 µM (inactive) | 36.1 µM (inactive)
O=C(/C=C/c1ccccc1)C[C@@H](O)C[C@@H]1CC=CC(=O)O1 | 12.5 µM (inactive) | 14.3 µM (inactive) | 2.64 µM (inactive) | 5.81 µM (inactive) | 3.88 µM (inactive) | 16 µM (inactive) | 3.34 µM (inactive) | 14.2 µM (inactive) | 1.95 µM (inactive) | 1.85 µM (inactive) | 2.18 µM (inactive) | 4.67 µM (inactive) | 18.7 µM (inactive) | 10.6 µM (inactive) | > 100 µM (inactive) | 16.7 µM (inactive) | 2.46 µM (inactive) | 8.95 µM (inactive) | 10.1 µM (inactive)
O=C(O)/C=C/c1ccc(OS(=O)(=O)O)cc1 | > 100 µM (inactive) | > 100 µM (inactive) | > 100 µM (inactive) | > 100 µM (inactive) | > 100 µM (inactive) | > 100 µM (inactive) | > 100 µM (inactive) | > 100 µM (inactive) | > 100 µM (inactive) |  | > 100 µM (inactive) | > 100 µM (inactive) | > 100 µM (inactive) | > 100 µM (inactive) | > 100 µM (inactive) | > 100 µM (inactive) | > 100 µM (inactive) | > 100 µM (inactive) | > 100 µM (inactive)
CN1CCN(CC(=O)N2c3ccccc3Sc3cc4ccccc4cc32)CC1 | 12.1 µM (inactive) | 16.1 µM (inactive) | 15 µM (inactive) | 13.8 µM (inactive) | 10.6 µM (inactive) | 18.7 µM (inactive) | 13.3 µM (inactive) | 13.6 µM (inactive) | 15.5 µM (inactive) | 26 µM (inactive) | 0.394 µM (active) | 17 µM (inactive) | 15.3 µM (inactive) | 19.7 µM (inactive) | 22.7 µM (inactive) | 13.7 µM (inactive) | 10.1 µM (inactive) | 19.7 µM (inactive) | 11.6 µM (inactive)
O=C(c1cc(Cl)cc(Cl)c1)N(Cc1cccnc1)C(=S)N(Cc1cccnc1)C(=O)c1cc(Cl)cc(Cl)c1 | 41.4 µM (inactive) | > 100 µM (inactive) | 23.8 µM (inactive) | 26.4 µM (inactive) | 36.6 µM (inactive) | 29.9 µM (inactive) | 17.3 µM (inactive) | 55.8 µM (inactive) | 34.1 µM (inactive) | 17.1 µM (inactive) | 25.3 µM (inactive) | 24.5 µM (inactive) | > 100 µM (inactive) | 44.7 µM (inactive) | 52.1 µM (inactive) | 27.4 µM (inactive) | 31.1 µM (inactive) | 63.1 µM (inactive) | 41.3 µM (inactive)
Cn1c(=O)c2nc(SCc3ccccn3)[nH]c2n(C)c1=S | 74.1 µM (inactive) | 27.7 µM (inactive) | > 100 µM (inactive) | > 100 µM (inactive) | 39.2 µM (inactive) | 44 µM (inactive) | 67.5 µM (inactive) | > 100 µM (inactive) | > 100 µM (inactive) | > 100 µM (inactive) | > 100 µM (inactive) | > 100 µM (inactive) | > 100 µM (inactive) | 66.8 µM (inactive) | 63.7 µM (inactive) | 23.3 µM (inactive) | > 100 µM (inactive) | > 100 µM (inactive) | > 100 µM (inactive)
Cc1nc(C)c(N2CCN(S(=O)(=O)N(Cc3ccccc3)Cc3ccccc3)CC2)c(O)n1 | > 100 µM (inactive) | 7.76 µM (inactive) | 4.85 µM (inactive) | > 100 µM (inactive) | 9.73 µM (inactive) | 9.31 µM (inactive) | 6.64 µM (inactive) | > 100 µM (inactive) | 43.5 µM (inactive) | > 100 µM (inactive) | > 100 µM (inactive) | > 100 µM (inactive) | > 100 µM (inactive) | 24.1 µM (inactive) | 0.279 µM (active) | > 51.9 µM (inactive) | 53 µM (inactive) | 14.3 µM (inactive) | 6.85 µM (inactive)
C=CCN1C[C@@H](C)N([C@@H](c2ccccc2)c2ccc(C(=O)N(CC)CC)cc2)C[C@@H]1C | > 100 µM (inactive) | > 100 µM (inactive) | > 100 µM (inactive) | > 100 µM (inactive) | 8.43 µM (inactive) | > 100 µM (inactive) | > 100 µM (inactive) | > 100 µM (inactive) |  |  | > 100 µM (inactive) | > 100 µM (inactive) | > 100 µM (inactive) | 65.8 µM (inactive) | 81.7 µM (inactive) | > 100 µM (inactive) | > 100 µM (inactive) | > 100 µM (inactive) | > 100 µM (inactive)
CCOC(=O)C1(C(=O)OCC)C=C(c2ccccc2)N(C2OC(COC(C)=O)C(OC(C)=O)C(OC(C)=O)C2OC(C)=O)C1=S (stereo unspecified) | > 100 µM (inactive) | 70.3 µM (inactive) | 73.1 µM (inactive) | 56.5 µM (inactive) | 93.3 µM (inactive) | > 100 µM (inactive) | > 100 µM (inactive) | > 100 µM (inactive) | > 100 µM (inactive) | 33.9 µM (inactive) | 22.9 µM (inactive) | 45.6 µM (inactive) | 59.2 µM (inactive) | > 100 µM (inactive) | > 100 µM (inactive) | 85.1 µM (inactive) | > 100 µM (inactive) | > 100 µM (inactive) | > 100 µM (inactive)
C=C(CCC/C(C)=C/C=C/[C@H](C)CCCc1ccoc1)C[C@@H]1OC(=O)[C@H](C)[C@@H]1O | 8.79 µM (inactive) | 8.15 µM (inactive) | 9.02 µM (inactive) | 8.81 µM (inactive) | 8.95 µM (inactive) | 8.63 µM (inactive) | 11.2 µM (inactive) | 9.4 µM (inactive) | 13.6 µM (inactive) | 11.9 µM (inactive) |  | 9.79 µM (inactive) | 5.7 µM (inactive) | 6.97 µM (inactive) | 8.18 µM (inactive) | 8.53 µM (inactive) | 11.5 µM (inactive) | 8.69 µM (inactive) | 9.2 µM (inactive)
COc1ccc(NC(=O)CC(=O)N2N=C(N(c3ccccc3)c3ccccc3)CC2c2ccccc2)cc1 (stereo unspecified) | > 100 µM (inactive) | > 100 µM (inactive) | > 100 µM (inactive) | > 100 µM (inactive) | > 100 µM (inactive) | > 100 µM (inactive) | > 100 µM (inactive) |  | > 100 µM (inactive) | > 100 µM (inactive) | > 100 µM (inactive) | > 100 µM (inactive) | > 100 µM (inactive) | > 100 µM (inactive) | > 100 µM (inactive) | > 100 µM (inactive) | > 100 µM (inactive) | > 100 µM (inactive) | > 100 µM (inactive)
Nc1nc(Cl)cc(NCC2CC(O)(CO)C2)n1 (stereo unspecified) | > 100 µM (inactive) | > 100 µM (inactive) | > 100 µM (inactive) |  | > 100 µM (inactive) | > 100 µM (inactive) | > 100 µM (inactive) | > 100 µM (inactive) | > 100 µM (inactive) | > 100 µM (inactive) | > 100 µM (inactive) | > 100 µM (inactive) | > 100 µM (inactive) | > 100 µM (inactive) | > 100 µM (inactive) | > 100 µM (inactive) | > 100 µM (inactive) | > 100 µM (inactive) | > 100 µM (inactive)
Cc1ccnc2[nH]c(-c3ccccc3)cc(=O)c12 | 0.0277 µM (active) | 0.0136 µM (active) | 0.00838 µM (active) | 0.00658 µM (active) | 0.0524 µM (active) |  | 0.0124 µM (active) | 0.0092 µM (active) | 0.0149 µM (active) | 0.00589 µM (active) | 0.00188 µM (active) | 0.00705 µM (active) | 0.0153 µM (active) | 42.5 µM (inactive) | 0.0246 µM (active) | > 10 µM (inactive) | 0.00396 µM (active) | 0.0297 µM (active) | 0.0341 µM (active)
